Results as given in patent publication US8513271B2, “Pyrimidine compounds as delta opioid receptor modulators” (Janssen Pharmaceutica, NV, priority 2009, dated 2013).
Where two headings read alike, the source gives them in different places.

Key:
[1] = test system: CFA-induced paw radiant heat hypersensitivity; test: CFA-induced paw radiant heat hypersensitivity; format: in vivo, rat; conditions: Rattus norvegicus, po
delta opioid receptor [2] = target: T1, delta opioid receptor (Mus musculus, UniProt P32300); test: [35S]GTPγS binding assay in NG108-15 cell membranes (delta opioid functional assay), 200 nM screen; format: biochemical; conditions: NG108-15 cell membranes; for GTPγS δ-RelEfficacy @200 nM: 200 nM test compound, relative to calculated max of SNC80 dose response curve; for GTPγS δ-RelEfficacy @200 nM / EC50: averages if tested more than once; for GTPγS δ-opioid receptor Rel Efficacy: relative efficacy from dose response
T1 construct: NG108-15 cell membranes were purchased from Applied Cell Sciences (Rockville, Md.); host or cells: NG108-15 cell membranes
T1 sequence (P32300 whole entry): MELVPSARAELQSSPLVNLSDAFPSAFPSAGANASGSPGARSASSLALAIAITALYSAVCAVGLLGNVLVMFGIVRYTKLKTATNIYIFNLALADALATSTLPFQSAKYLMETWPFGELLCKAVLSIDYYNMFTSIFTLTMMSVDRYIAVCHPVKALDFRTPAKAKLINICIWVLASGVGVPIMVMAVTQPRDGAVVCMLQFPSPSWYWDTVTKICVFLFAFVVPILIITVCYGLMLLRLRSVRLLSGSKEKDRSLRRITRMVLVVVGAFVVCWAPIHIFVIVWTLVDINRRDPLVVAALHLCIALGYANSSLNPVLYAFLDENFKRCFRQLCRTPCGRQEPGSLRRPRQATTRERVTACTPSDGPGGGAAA

[3] = target: hMOR (mu opioid receptor) (Homo sapiens, UniProt P35372); test: [35S]GTPγS binding assays in CHO-hMOR cell membranes (mu opioid functional assay); format: biochemical; conditions: for inhibition at 10 µM: read-out: GTPγS μ-opioid receptor % Inh @10 μM
Sequence of hMOR (mu opioid receptor) (P35372 whole entry, looked up): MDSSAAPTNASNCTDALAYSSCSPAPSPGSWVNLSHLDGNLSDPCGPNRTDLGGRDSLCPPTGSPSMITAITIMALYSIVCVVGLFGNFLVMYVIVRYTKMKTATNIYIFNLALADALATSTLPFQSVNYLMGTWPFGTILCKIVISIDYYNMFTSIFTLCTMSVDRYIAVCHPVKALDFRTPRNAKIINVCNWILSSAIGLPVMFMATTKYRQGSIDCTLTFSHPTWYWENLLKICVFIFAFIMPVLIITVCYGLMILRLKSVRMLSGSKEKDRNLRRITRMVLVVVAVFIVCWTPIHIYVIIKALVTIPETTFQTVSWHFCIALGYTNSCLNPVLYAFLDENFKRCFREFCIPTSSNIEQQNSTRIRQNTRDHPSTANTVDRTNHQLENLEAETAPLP

delta opioid receptor [4] = target: T2, delta opioid receptor (Rattus norvegicus, UniProt P33533); test: Rat brain delta opioid receptor binding assay; conditions: rat forebrain, [3H]naltrindole ligand
T2 construct: the forebrains were homogenized in Tris buffer in a Teflon®-glass homogenizer; from tissue; host or cells: forebrain of male Wistar rats, particulate (membrane) preparation
T2 sequence (P33533 whole entry): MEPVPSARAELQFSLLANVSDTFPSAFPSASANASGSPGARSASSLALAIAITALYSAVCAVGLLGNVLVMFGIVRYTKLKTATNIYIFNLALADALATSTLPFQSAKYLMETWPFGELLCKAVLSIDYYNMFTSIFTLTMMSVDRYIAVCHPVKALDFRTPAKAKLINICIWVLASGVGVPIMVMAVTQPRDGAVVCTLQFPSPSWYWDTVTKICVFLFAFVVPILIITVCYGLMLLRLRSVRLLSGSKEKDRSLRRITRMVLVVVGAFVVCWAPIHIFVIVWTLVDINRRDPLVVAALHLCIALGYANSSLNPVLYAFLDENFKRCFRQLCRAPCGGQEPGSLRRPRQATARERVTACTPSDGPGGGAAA

delta opioid receptor [5] = target: T1, delta opioid receptor; test: NG108-15, 24-well delta opioid receptor binding assay
mu opioid receptor = target: T3, mu opioid receptor (Rattus norvegicus, UniProt P33535); test: Rat brain mu opioid receptor binding assay; conditions: rat forebrain, [3H]DAMGO ligand
T3 construct: the forebrains were homogenized in Tris buffer in a Teflon®-glass homogenizer; from tissue; host or cells: forebrain of male Wistar rats, particulate (membrane) preparation
T3 sequence (P33535 whole entry): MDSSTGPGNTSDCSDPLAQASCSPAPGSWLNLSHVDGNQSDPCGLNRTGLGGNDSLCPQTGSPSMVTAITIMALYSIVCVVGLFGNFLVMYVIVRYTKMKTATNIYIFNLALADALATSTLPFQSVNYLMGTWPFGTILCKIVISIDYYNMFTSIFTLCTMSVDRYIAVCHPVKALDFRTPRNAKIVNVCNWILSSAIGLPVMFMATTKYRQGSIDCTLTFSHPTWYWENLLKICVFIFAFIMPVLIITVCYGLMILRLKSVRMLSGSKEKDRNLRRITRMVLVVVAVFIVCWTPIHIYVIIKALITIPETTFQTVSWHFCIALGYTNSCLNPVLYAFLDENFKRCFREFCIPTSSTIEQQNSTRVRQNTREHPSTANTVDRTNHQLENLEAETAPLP

[6] = 1 h, read-out: maximum % reversal @ time (min), rat, 30 mg/kg p.o., 0.5% HPMC, @ 60 min
[7] = GTPγS δ-opioid receptor EC50 (μM)
[8] = [3H]Naltrindole ligand, NG108-15 cell membranes, read-out: δ-binding NG108 cell membrane Ki
[9] = δ-binding (Naltrindole ligand) Ki
[10] = read-out: GTPγS δ-opioid receptor EC50

Structure (SMILES) | GTPγS δ-RelEfficacy @200 nM (delta opioid receptor [2]) | EC50 (delta opioid receptor [2]; [7]) [µM] | GTPγS δ-opioid receptor Rel Efficacy (delta opioid receptor [2]) | inhibition at 10 µM [3] [%] | Ki (delta opioid receptor [5]; [8]) [nM] | EC50 (delta opioid receptor [2]; [10]) [µM] | further results
COc1ccc(Oc2nc(-c3cncc(OC)c3)ncc2NC[C@@H]2C[C@@H](F)CN2)cc1 [Cpd 235] | 0.962 | 0.00733 | 0.953 | – | – | – | inhibition in vivo at 30 mg/kg [1, 6]: 43.7%
COc1ccc(Oc2nc(-c3cccnc3)ncc2N[C@H]2CCNC2)cc1 [Cpd 237] | – | – | – | – | – | – | GTPγS μ-opioid receptor % Inh @10 μM ([3]; 10 μM, CHO-hMOR cell membranes, inhibition of agonist-stimulated GTPγS binding): 3.524%
COc1ccc(Oc2nc(-c3cncc(SC)c3)ncc2N2CCNCC2)cc1 [Cpd 341] | – | 0.041 | 0.788 | 0 | – | – | –
COc1ccc(Oc2nc(-c3cncnc3)ncc2NCC2COCCN2)cc1 (racemic) [Cpd 278] | 0.263 | – | – | – | 1.64 | – | Ki (delta opioid receptor [4]; read-out: δ-binding (Naltrindole ligand) Ki): 999 nM
COc1ccc(Oc2nc(-c3cncc(F)c3)ncc2NC[C@@H]2CCCN2)cc1 [Cpd 54] | – | – | – | – | – | – | Ki (delta opioid receptor [4]; [9]): 0.33 nM; inhibition in vivo at 100 mg/kg ([1]; 1 h, read-out: maximum % reversal @ time (min), rat, 100 mg/kg p.o., 0.5% HPMC, @ 60 min): 17.8%; inhibition in vivo at 100 mg/kg ([1]; 3 h, read-out: maximum % reversal @ time (min), rat, 100 mg/kg p.o., 0.5% HPMC, @ 180 min): 32.7%; Ki (mu opioid receptor; read-out: μ-binding Ki): 217 nM; Ki (delta opioid receptor [5]): 0.188 nM
COc1ccc(Oc2nc(-c3cncc(C#N)c3)ncc2NC[C@H]2C[C@H](N)C2)cc1 [Cpd 301] | – | 0.087 | 1.085 | – | – | – | Ki (mu opioid receptor; μ-binding Ki): 658 nM; Ki (delta opioid receptor [5]): 0.5 nM
COc1ccc(Oc2nc(-c3cncc(SC)c3)ncc2N2CCCNCC2)cc1 [Cpd 347] | – | 0.069 | 0.898 | -0.404 | – | – | –
COc1ccc(Oc2nc(-c3cncnc3)ncc2NC[C@@H]2CCCN2)cc1F [Cpd 133] | 0.755 | – | 1.041 | – | 0.4 | 0.028 | –
COc1ccc(Oc2nc(-c3cncc(OC)c3)ncc2N2CC[C@@H](N)C2)cc1 [Cpd 349] | – | 0.082 | 0.929 | 0 | – | – | –
COc1ccc(Oc2nc(-c3cncc(C#N)c3)ncc2NC[C@@H]2CCCN2)c(F)c1F [Cpd 101] | – | – | – | 16.6 | – | 0.103 | Ki (delta opioid receptor [4]; [9]): 7 nM; EC50 ([3]; CHO-hMOR cell membranes, read-out: GTPγS μ-opioid receptor EC50): > 10000 nM; Ki (mu opioid receptor; μ-binding Ki): 58 nM
COc1ccc(Oc2nc(-c3cccnc3)ncc2N2CCCNCC2)cc1 [Cpd 336] | 0.830 | 0.0502 | 1.009 | 17.1 | – | – | inhibition in vivo at 30 mg/kg ([1]; 0.5 h, read-out: maximum % reversal @ time (min), rat, 30 mg/kg p.o., 0.5% HPMC, @ 30 min): 23.4%
COc1ccc(Oc2nc(-c3cncc(C#N)c3)ncc2NC[C@@H]2CCCN2)cc1F [Cpd 132] | – | 0.015 | 1.042 | 9.4 | – | – | EC50 [3]: 9280 nM; Ki (mu opioid receptor; μ-binding Ki): 61 nM; Ki (delta opioid receptor [5]): 0.4 nM
CSc1ccc(Oc2nc(-c3cncnc3)ncc2NC[C@@H]2CCCN2)cc1 [Cpd 151] | 0.704 | – | 1.121 | – | 1 | 0.119 | –
COc1ccc(Oc2nc(-c3cncc(SC)c3)ncc2N[C@H]2CCNC2)cc1 [Cpd 255] | – | 0.0464 | 0.997 | 17.1 | – | – | –
Cc1ccc(Oc2nc(-c3cncnc3)ncc2NC[C@@H]2CCCN2)cc1 [Cpd 148] | 0.411 | – | 1.052 | – | 1 | 0.158 | –
O=C(c1cccc(Oc2nc(-c3cccnc3)ncc2NC[C@@H]2CCCN2)c1)N1CCCCC1 [Cpd 167] | 0.328 | – | – | – | 21 | – | –
COc1ccc(Oc2nc(-c3cncc(C#N)c3)ncc2NC[C@@H](N)CC(C)C)cc1 [Cpd 294] | – | – | – | – | 6 | > 10 | –
OCc1ccc(Oc2nc(-c3cncnc3)ncc2NC[C@@H]2CCCN2)cc1 [Cpd 144] | 0.191 | – | – | – | – | – | Ki (delta opioid receptor [5]): 7 nM
COc1ccc(Oc2nc(-c3cncc(C)c3)ncc2NC[C@@H]2C[C@@H](F)CN2)cc1 [Cpd 238] | – | 0.008 | 0.966 | – | – | – | inhibition in vivo at 30 mg/kg [1, 6]: 39.5%
Fc1cncc(-c2ncc(NC[C@@H]3CCCN3)c(Oc3ccc(Cl)cc3)n2)c1 [Cpd 128] | – | – | 1.144 | – | 0.4 | 0.453 | –
